ChEMBL document CHEMBL4825752, “1, 2-Dihexadecanoyl-sn-glycero-3-phosphoethanolamin (DPPE), doxorubicin and folic acid conjugated micelles for cancer management in tumor bearing BALB/c mice” (Bioorg Med Chem Lett, 2021)

Assays:
[1] = AUC(0 to t) in single iv dosed BALB/c mouse by HPLC analysis; assay type: ADME, organism-based; details: in vivo
[2] = AUC(0 to infinity) in single iv dosed BALB/c mouse by HPLC analysis; assay type: ADME, organism-based; set-up: time infinity, route intravenous; details: in vivo
[3] = AUMC(0 to t) in single iv dosed BALB/c mouse by HPLC analysis; assay type: ADME, organism-based; details: in vivo
[4] = AUMC(0 to infinity) in single iv dosed BALB/c mouse by HPLC analysis; assay type: ADME, organism-based; details: in vivo
[5] = Half life in single iv dosed BALB/c mouse by HPLC analysis; assay type: ADME, organism-based; details: in vivo
[6] = Mean residence time in single iv dosed BALB/c mouse by HPLC analysis; assay type: ADME, organism-based; details: in vivo
[7] = Biodistribution in liver of iv dosed tumor bearing BALB/c mouse; assay type: ADME, organism-based; details: in vivo
[8] = Biodistribution in kidney of iv dosed tumor bearing BALB/c mouse; assay type: ADME, organism-based; details: in vivo
[9] = Biodistribution in heart of iv dosed tumor bearing BALB/c mouse; assay type: ADME, organism-based; details: in vivo
[10] = Biodistribution in spleen of iv dosed tumor bearing BALB/c mouse; assay type: ADME, organism-based; details: in vivo
[11] = Toxicity in tumor bearing BABL/c mouse assessed as median survival time at 5 mg/kg, iv (reference value: 7.5 day); assay type: organism-based; details: in vivo, 180 h
[12] = Toxicity in rat liver assessed as microvesicular steatosis by histopathological analysis; assay type: tissue-based
[13] = Toxicity in rat liver assessed as hepatocytes degeneration by histopathological analysis
[14] = Biodistribution in blood of single iv dosed tumor bearing BALB/c mouse; assay type: ADME, organism-based; details: in vivo
[15] = Toxicity in rat heart assessed as myocardial cell degeneration by histopathological analysis; assay type: tissue-based
[16] = Toxicity in rat heart assessed as myocardial necrosis by histopathological analysis; assay type: tissue-based; details: in vivo
[17] = Toxicity in rat heart assessed as haemorrhage by histopathological analysis; assay type: tissue-based; details: in vivo
[18] = Toxicity in rat skeletal muscle assessed as widening of endomysium by histopathological analysis; assay type: tissue-based, Skeletal muscle tissue; details: in vivo
[19] = Toxicity in rat skeletal muscle assessed as infiltration of inflammatory cells by histopathological analysis; assay type: tissue-based, Skeletal muscle tissue
[20] = Toxicity in rat kidney assessed as epithelial degeneration by histopathological analysis; assay type: tissue-based; details: in vivo
[21] = Toxicity in rat kidney assessed as tubular degeneration by histopathological analysis; assay type: tissue-based; details: in vivo
[22] = Toxicity in rat kidney assessed as tubular necrosis by histopathological analysis; assay type: tissue-based; details: in vivo
[23] = Toxicity in rat kidney assessed as glomerular necrosis by histopathological analysis; assay type: tissue-based; details: in vivo
[24] = Toxicity in rat kidney assessed as congestion of glomeruli blood vessels by histopathological analysis; assay type: tissue-based; details: in vivo

## COc1cccc2c1C(=O)c1c(O)c3c(c(O)c1C2=O)C[C@@](O)(C(=O)CO)C[C@@H]3O[C@H]1C[C@H](N)[C@H](O)[C@H](C)O1 [DOXORUBICIN]
[1]
  AUC(0-t): 11400 ng·h/mL
[2]
  AUC(0-inf): 10400 ng·h/mL
[3]
  AUMCt: 29.45 ug/ml.hr^2
[4]
  AUMC: 30.25 ug/ml.hr^2
[5]
  t1/2: 2.09 h
[6]
  MRT: 3.1 h
[7]
  Drug uptake: Active
[8]
  Drug uptake: Active
[9]
  Drug uptake: Active
[10]
  Drug uptake: Active
[11]
  Activity: Non-Toxic
  MST: 40 days
[12]
  Activity: Toxic
[13]
  Activity: Toxic
[14]
  Drug uptake: Active
[15]
  Activity: Toxic
[16]
  Activity: Toxic
[17]
  Activity: Toxic
[18]
  Activity: Toxic
[19]
  Activity: Toxic
[20]
  Activity: Toxic
[21]
  Activity: Toxic
[22]
  Activity: Toxic
[23]
  Activity: Toxic
[24]
  Activity: Toxic
